The nature of data set [1]: Inhibition of human recombinant beta tryptase using S-2366 as substrate after 30 mins by spectrophotometry.
Data set [2] in a line: Inhibition of trypsin.
Data set [3] is described as follows: Volume of distribution at steady state in rat at 2 mg/kg, iv and 10 mg/kg, po. The settings on record: in vivo, read-out: Vdss.
Data set [4] is described as follows: Half life in rat plasma at 2 mg/kg, iv.
Data set [5] is described as follows: Oral bioavailability in rat at 10 mg/kg. Particulars: in vivo. The class given is ADME, organism-based.
The next data set has as its target T1, Chymase (Homo sapiens, UniProt P23946).
T1 sequence (P23946 whole entry): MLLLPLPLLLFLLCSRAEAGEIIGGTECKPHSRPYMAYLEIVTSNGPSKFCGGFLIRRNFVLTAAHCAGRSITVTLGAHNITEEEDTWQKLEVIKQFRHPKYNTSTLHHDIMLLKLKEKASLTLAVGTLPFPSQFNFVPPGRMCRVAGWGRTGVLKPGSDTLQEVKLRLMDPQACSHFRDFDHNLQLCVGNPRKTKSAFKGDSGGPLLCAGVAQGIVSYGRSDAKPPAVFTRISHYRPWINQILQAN
Description: Inhibition of chymase.

The nature of data set [6]: Tmax in rat at 10 mg/kg, po. Format: ADME, organism-based. Further details: dose 10 mg/kg, route oral. Particulars: in vivo.
A short description of data set [7]: Cmax in rat at 10 mg/kg, po. Further details: dose 10 mg/kg, route oral. Format: ADME, organism-based. Particulars: in vivo.
The target in another data set is Prothrombin (Homo sapiens, UniProt P00734). Description: Inhibition of thrombin.
The next data set deals with Coagulation factor X (Homo sapiens, UniProt P00742). Briefly: Inhibition of Coagulation factor 10a.
Chain of Coagulation factor X (P00742 41-179 limits assumed): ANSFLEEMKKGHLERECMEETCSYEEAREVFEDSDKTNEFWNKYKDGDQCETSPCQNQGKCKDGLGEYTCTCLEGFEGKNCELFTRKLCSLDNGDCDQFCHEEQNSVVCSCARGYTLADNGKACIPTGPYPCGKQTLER
Chain of Coagulation factor X (P00742 235-488 limits assumed): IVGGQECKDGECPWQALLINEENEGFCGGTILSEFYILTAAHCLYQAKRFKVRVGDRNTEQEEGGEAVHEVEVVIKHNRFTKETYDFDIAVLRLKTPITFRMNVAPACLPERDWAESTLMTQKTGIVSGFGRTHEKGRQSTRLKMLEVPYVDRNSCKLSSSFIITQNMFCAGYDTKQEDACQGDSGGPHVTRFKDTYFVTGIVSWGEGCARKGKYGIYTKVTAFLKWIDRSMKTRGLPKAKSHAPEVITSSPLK
Data set [8] can be described thus: Plasma clearance in rat at 2 mg/kg, iv and 10 mg/kg, po.
A short description of data set [9]: Inhibition of elastase.

Consider 18 compounds from ChEMBL document CHEMBL1944527, “Structure-based library design and the discovery of a potent and selective mast cell β-tryptase inhibitor as an oral therapeutic agent” (Bioorg Med Chem Lett, 2012).

For the compound `NCc1cccc(C2CCN(C(=O)c3ccc(C#Cc4ccc(Cl)cc4)o3)CC2)c1`, the Ki in data set [1] came to 166 nM.

For the compound `NCc1cccc(C2CCN(C(=O)c3ccc(C#Cc4ccccc4)o3)CC2)c1.O=C(O)C(F)(F)F`, the IC50 (in data set [2]; against Chymase; at Prothrombin; against Coagulation factor X; in data set [9]) was above 100000 nM in each case. Besides, in [3], the Vd was found to be 14.1 L/kg. The same compound showed a half-life in data set [4] of 2.5 h. In addition, the bioavailability in data set [5] was 32%. For the same compound, the Tmax in data set [6] came out at 3.3 h. The compound also displayed a Cmax in data set [7] of 68 ng/mL. Also, in data set [1], the Ki was 31 nM. This compound also gave a clearance in data set [8] of 85 mL/min/kg.

In the case of `NCc1cccc(C2CCN(C(=O)c3ccc(C#Cc4ccccc4F)o3)CC2)c1.O=C(O)C(F)(F)F`, the IC50 (in [2]; against Chymase; at Prothrombin; against Coagulation factor X; in [9]) was above 100000 nM each time. Further, the Vd in [3] stood at 18.5 L/kg. In addition, the half-life in [4] is 2.2 h. Moreover, in data set [5], the bioavailability amounted to 77%. The Tmax in data set [6] stood at 3.7 h. Also, the maximum concentration (Cmax) in data set [7] was determined as 121 ng/mL. Also, the clearance in data set [8] was 140 mL/min/kg.

Regarding `Cc1ccc(C#Cc2ccc(C(=O)N3CCC(c4cccc(CN)c4)CC3)o2)cc1`, the inhibition constant (Ki) in [1] worked out at 112 nM.

Regarding `Cc1ccccc1C#Cc1ccc(C(=O)N2CCC(c3cccc(CN)c3)CC2)o1`, the Ki in data set [1] was 324 nM.

Take `NCc1cccc(C2CCN(C(=O)c3ccc(C#Cc4ccc(F)c(F)c4)o3)CC2)c1`: the Ki in [1] amounted to 742 nM.

In the case of `NCc1cccc(C2CCN(C(=O)c3ccc(C#Cc4ccc(F)cc4F)o3)CC2)c1`, the Ki in data set [1] stood at 67 nM.

On to `NCc1cccc(C2CCN(C(=O)c3ccc(C#Cc4ccc(F)cc4)o3)CC2)c1`, for which the Ki in [1] was 279 nM.

Regarding `NCc1cccc(C2CCN(C(=O)c3ccc(C#Cc4cccc(F)c4)o3)CC2)c1`, the inhibitory constant (Ki) in data set [1] amounted to 98 nM.

In the case of `NCc1cccc(C2CCN(C(=O)c3ccc(C#Cc4ccccc4Cl)o3)CC2)c1`, the Ki in data set [1] was determined as 22 nM.

Turning to `NCc1cccc(C2CCN(C(=O)c3ccc(C#Cc4ccc(Cl)nc4)o3)CC2)c1`, the Ki in data set [1] was 101 nM.

Consider `NCc1cccc(C2CCN(C(=O)c3ccc(C#Cc4cccs4)o3)CC2)c1`, for which the Ki in data set [1] amounted to 236 nM.

Consider `NCc1cccc(C2CCN(C(=O)c3ccc(C#Cc4ccsc4)o3)CC2)c1`, for which the Ki in data set [1] amounted to 327 nM.

As to `NCc1cccc(C2CCN(C(=O)c3ccc(C#Cc4cccnc4)o3)CC2)c1`, the Ki in [1] worked out at 84 nM.

For `NCc1cccc(C2CCN(C(=O)c3ccc(C#Cc4ccccn4)o3)CC2)c1.O=C(O)C(F)(F)F`, the IC50 in data set [2] is above 100000 nM; against Chymase, above 100000 nM; against Prothrombin, above 100000 nM; against Coagulation factor X, 9000 nM; in data set [9] it was above 100000 nM. In [4], this compound gave a half-life of 0.46 h. The compound further yielded a bioavailability in data set [5] of 0%. Also, the Ki in data set [1] amounted to 5 nM. In data set [8], this compound showed a clearance of 310 mL/min/kg.

Regarding `NCc1cccc(C2CCN(C(=O)c3ccc(C#Cc4ncccc4F)o3)CC2)c1`, the Ki in [1] was found to be 27 nM.

Consider `NCc1cccc(C2CCN(C(=O)c3ccc(C#Cc4cnccn4)o3)CC2)c1`, for which, in data set [1], the Ki stood at 2770 nM.

As to `NCc1cccc(C2CCN(C(=O)c3ccc(C#Cc4ncccn4)o3)CC2)c1`, the Ki in [1] amounted to 157 nM.

As a reminder, the Ki is the equilibrium dissociation constant of an inhibitor or competing ligand from its target. Usually IC50 stands for the midpoint of a concentration-inhibition curve. High values mean weaker potency, low ones greater potency. What is called half-life is the time in which the quantity being followed falls by half. Low readings indicate rapid decline, high ones slow decline. What is called bioavailability is the share of a dose that reaches the circulation, judged against a reference dose that is usually intravenous. A high value points to good availability. As usually defined, the Tmax is the time at which the peak concentration occurs. One may read the Cmax as the peak of the concentration-time curve.
